Source: patent US12576099B2, “Ribose-modified cap analog and use thereof” (Beijing Youcare Kechuang Pharmaceutical Technology Co., Ltd., priority 2024, dated 2026)

Experiments:
T7 RNA polymerase [1] = target: T1, T7 RNA polymerase (Escherichia phage T7, UniProt P00573); experiment: In vitro transcription yield of mRNA using cap analogs; assay type: biochemical; conditions: for Yield per unit template: in vitro transcription, 1 μg DNA template, 37° C., 2 hours
Procedure: • (1) Capping synthesis using cap analogs
The plasmid was first linearized with plasmid linearizing enzyme, and then the linearized plasmid was purified. • (2) In vitro transcription and synthesis of mRNA
(§1) During the experiment, the volume of materials required for the system was first calculated, and then sample addition was conducted. The system was first added with sterile enzyme-free water, followed by the sequential addition of 10× buffer, NTPs, and cap analogs, mixed well, and gently centrifuged. Nuclease inhibitors, inorganic pyrophosphatase, T7RNA polymerase, and linearized DNA templates were then added thereto. The system was mixed well, gently centrifuged, and incubated at 37° C. After 2 hours of incubation, the system was added with 1 U of DNase I and incubated at 37° C. for another 30 minutes. The mRNA precipitate was then washed with 75% ethanol, and after the ethanol was briefly evaporated to dryness, the mRNA was redissolved in sterile enzyme-free water. • (3) The transcription product was purified, and the in vitro transcription yield of mRNA was recorded. • (4) The obtained mRNA was subjected to an annealing reaction with a probe.

T7 RNA polymerase [2] = target: T1, T7 RNA polymerase; experiment: Capping rate of mRNA transcription initiated by cap analogs (LC-MS); assay type: biochemical; conditions: for Capping rate: LC-MS of mRNA 5′ fragment
Procedure: as §1
The annealing reaction was performed in a PCR instrument: 95° C. for 5 minutes; 65° C. for 2 minutes; 55° C. for 2 minutes; 40° C. for 2 minutes; 22° C. for 2 minutes. • (5) Magnetic bead pretreatment and probe binding: 100 μL of magnetic beads was placed on a magnetic frame for pretreatment. The magnetic bead solution was added with 120 μL of sample and incubated at room temperature for 30 minutes with slow mixing. • (6) mRNA splicing and obtaining the mRNA 5′ single-strand sequence bound to the probe
The mixture was added with 20 μL of RNase H (5 U/μL) and incubated at 37° C. for 3 hours with mixing every half hour. After incubation, the magnetic beads were washed and then added with 100 μL of 75% methanol heated to 80° C. The mixture was heated to 80° C. on a heating plate, held for 3 minutes, then placed on a magnetic frame to aspirate the supernatant, and dried at room temperature for 45 minutes to a volume of 10 μL using a centrifugal evaporator. The sample was then resuspended in 50 μL of 100 μM EDTA/1% MeOH and ready for LC-MS analysis to determine the capping of RNA in the transcription reaction. Since there is a significant difference in molecular weight between capped and uncapped bases, the capping rate of mRNA transcription initiated by different cap analogs can be determined based on the difference in molecular mass.

[3] = Characterization of lipid nanoparticles encapsulating Fluc-mRNA prepared from different cap structures; assay type: physicochemical; conditions: for Particle size: LNP (YK-009/DSPC/cholesterol/DMG-PEG2000) with Fluc-mRNA transcribed using the named cap analog; for PDI: LNP with Fluc-mRNA transcribed using the named cap analog; for EE: encapsulation efficiency of LNP with Fluc-mRNA transcribed using the named cap analog
Procedure: Cationic lipid YK-009 (Beijing Youcare Kechuang Pharmaceutical Technology Co., Ltd.), DSPC (AVT (Shanghai) Pharmaceutical Technology Co., Ltd.), cholesterol (AVT (Shanghai) Pharmaceutical Technology Co., Ltd.), and DMG-PEG2000 were dissolved in ethanol at a molar ratio of 49:10:39.5:1.5, and the mRNA was diluted in 50 mM citrate buffer (pH=4). The ethanol lipid solution was mixed with the Fluc-mRNA aqueous solution prepared from different cap structures at a volume ratio of 1:3 using a microfluidic device at a flow rate of 10 mL/min to prepare LNPs at a weight ratio of total lipid to mRNA of approximately 15:1.
The resulting liposomes were diluted to 10-fold volume with PBS, and then ultrafiltered with a 300 KDa ultrafiltration tube to remove ethanol. The volume was then fixed to a certain volume with PBS. Finally, the LNPs were filtered through a 0.2 μm sterile filter to obtain an LNP preparation encapsulating Fluc-mRNA using YK-009/DSPC/cholesterol/DMG-PEG2000 (at a molar ratio of 49:10:39.5:1.5).
The particle size and polydispersity index (PDI) were determined by dynamic light scattering using a Malvern laser particle size analyzer. 10 μL of the liposome solution was taken, diluted to 1 mL with RNase-free deionized water, and added to a sample pool. Each sample was measured in triplicate. The measurement conditions were: a scattering angle of 90° and a temperature of 25° C. The encapsulation efficiency of LNPs was determined using the Quant-iT RiboGreen RNA Quantification Kit (Thermo Fisher Scientific, UK) according to the manufacturer's instructions.

HEK293T cells = experiment: Translation efficiency of different capped luciferase mRNAs; assay type: cell-based; conditions: for Relative fluorescence intensity: HEK293T, 0.5 μg mRNA per well, 24 hours, proportional to translation efficiency; for Multiple of m6A (relative fluorescence intensity): relative to m6A
Procedure: • (1) HEK293T cells were cultured in DMEM medium containing 10% FBS and penicillin/streptomycin at 37° C. with 5% CO2. • (2)Cells in the culture dish were digested and counted, then spread in a 96-well plate at 10,000 cells per well, and cultured overnight until the cells adhered to the wall. • (3) When the cell density reached approximately 80%, transfection was performed by adding 0.5 μg of mRNA sample and Lipofectamine MessengerMAX Transfection Reagent (Invitrogen) per well according to the manufacturer's instructions. • (4) After the transfected cells were cultured at 37° C. with 5% CO2 for 24 hours, the growth medium was removed from the cells to be tested, and the cells were rinsed with PBS. After centrifugation to remove PBS, 50 μL of 1× lysis buffer was added. The cells and all liquid were transferred to a microcentrifuge tube and centrifuged. • (5) 20 μL of sample was taken and added to 100 μL of Dual-Lumi™ II Luciferase Assay Reagent pre-equilibrated to room temperature, and mixed appropriately. • (6) The mixture was incubated at room temperature (approximately 25° C.) for 5 minutes to stabilize the luminescence signal. Chemiluminescence was detected using a multifunctional microplate reader with a function for detecting chemiluminescence, and the data were recorded.
The relative fluorescence intensity is proportional to the translation efficiency of mRNA.

DCP2 enzyme = target: T2, DCP2 enzyme (Schizosaccharomyces pombe, UniProt O13828); experiment: Decapping enzyme stability test; assay type: biochemical; conditions: for Decapping rate (%) of DCP2 enzyme: 50 U mRNA decapping enzyme, 37° C., 45 minutes
T2 construct: purchased New England Biolabs
T2 sequence (O13828 1-243 limits assumed): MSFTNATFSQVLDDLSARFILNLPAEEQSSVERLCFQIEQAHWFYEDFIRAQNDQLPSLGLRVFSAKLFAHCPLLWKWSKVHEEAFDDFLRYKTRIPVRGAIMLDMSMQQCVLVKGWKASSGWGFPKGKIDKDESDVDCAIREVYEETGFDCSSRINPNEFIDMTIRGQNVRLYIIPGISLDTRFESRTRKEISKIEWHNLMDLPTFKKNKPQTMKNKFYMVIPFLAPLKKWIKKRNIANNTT
T2 sequence (Q9P805 1-127 partner): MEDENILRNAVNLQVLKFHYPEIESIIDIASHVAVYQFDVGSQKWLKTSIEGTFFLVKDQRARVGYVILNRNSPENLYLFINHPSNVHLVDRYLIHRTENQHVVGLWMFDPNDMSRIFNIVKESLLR
T2 sequence (Q10108 155-180 partner limits assumed): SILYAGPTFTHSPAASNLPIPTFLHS
Procedure: […] of RNA purified by polyacrylamide gel electrophoresis (PAGE) was subjected to an enzymatic reaction with 50 U of mRNA decapping enzyme (New England Biolabs) and 1×MDE buffer at 37° C. for 45 minutes. The enzymatic reactants were subjected to PAGE and stained with SYBR Green II (Lonza), followed by observation of the post-electrophoresis gel image on a Typhoon FLA 7000 (GE Healthcare) instrument. The electrophoresis band intensity ratio of RNA capping to RNA decapping was counted using ImageQuant (GE Healthcare) software, and the decapping rate of the decapping enzyme was calculated.

T1 sequence (P00573 whole entry): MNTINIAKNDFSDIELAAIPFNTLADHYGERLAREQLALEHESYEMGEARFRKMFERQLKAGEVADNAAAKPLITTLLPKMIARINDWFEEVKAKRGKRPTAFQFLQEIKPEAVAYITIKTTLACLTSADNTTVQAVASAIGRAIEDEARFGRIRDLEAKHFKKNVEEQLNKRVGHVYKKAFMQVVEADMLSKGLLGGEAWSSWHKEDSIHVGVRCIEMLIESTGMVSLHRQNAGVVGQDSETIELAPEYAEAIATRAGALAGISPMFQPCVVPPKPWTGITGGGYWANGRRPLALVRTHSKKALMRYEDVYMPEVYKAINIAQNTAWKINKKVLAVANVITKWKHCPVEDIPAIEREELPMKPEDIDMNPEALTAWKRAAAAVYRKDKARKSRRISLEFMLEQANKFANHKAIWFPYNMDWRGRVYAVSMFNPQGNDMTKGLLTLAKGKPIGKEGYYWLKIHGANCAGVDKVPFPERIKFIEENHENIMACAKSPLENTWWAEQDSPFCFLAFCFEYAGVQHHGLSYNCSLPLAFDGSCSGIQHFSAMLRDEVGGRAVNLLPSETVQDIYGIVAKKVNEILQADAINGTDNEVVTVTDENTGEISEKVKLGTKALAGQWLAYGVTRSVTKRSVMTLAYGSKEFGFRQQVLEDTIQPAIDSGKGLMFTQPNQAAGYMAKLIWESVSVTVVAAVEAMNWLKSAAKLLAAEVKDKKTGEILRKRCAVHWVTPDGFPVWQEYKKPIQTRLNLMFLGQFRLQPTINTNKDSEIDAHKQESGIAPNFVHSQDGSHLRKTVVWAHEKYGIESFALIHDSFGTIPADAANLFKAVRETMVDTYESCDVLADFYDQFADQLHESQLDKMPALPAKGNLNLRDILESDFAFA

SMILES | Yield per unit template (T7 RNA polymerase [1]) [µg] | Increase relative to 5227 (in vitro transcription yield) (T7 RNA polymerase [1]) [%] | Capping rate (T7 RNA polymerase [2]) [%] | Increase relative to 5227 (capping rate) (T7 RNA polymerase [2]) [%] | Particle size [3] [nm] | PDI [3] | EE [3] [%] | Relative fluorescence intensity (HEK293T cells) | Multiple of m6A (relative fluorescence intensity) (HEK293T cells) | Decapping rate (%) of DCP2 enzyme (DCP2 enzyme) [%] | Decrease relative to N-7113 (decapping rate) (DCP2 enzyme) [%]
CO[C@@H]1[C@H](OP(=O)(O)OC[C@H]2O[C@@H](n3cnc4c(=O)[nH]c(N)nc43)[C@H](O)[C@@H]2O)[C@@H](COP(=O)(O)OP(=O)(O)OP(=O)(O)OC[C@H]2O[C@@H](C[n+]3cn(C)c4c(=O)[nH]c(N)nc43)[C@H](O)[C@@H]2O)O[C@H]1n1cnc2c(N)ncnc21 [YK-CAP-103] | 88.0 | −34.4 | 71.1 | −1.1 | 67.24 | 0.053 | 94.7 | 0.77 | 2.0 | 36.5 | 7.3
CO[C@@H]1[C@H](OP(=O)(O)OC[C@H]2O[C@@H](n3cnc4c(=O)[nH]c(N)nc43)[C@H](O)[C@@H]2O)[C@@H](COP(=O)(O)OP(=O)(O)OP(=O)(O)OC[C@H]2O[C@@H]([n+]3cn(C)c4c(=O)[nH]c(N)nc43)[C@H](O)[C@]2(F)CN(C)C)O[C@H]1n1cnc2c(N)ncnc21 [YK-CAP-104] | 73.2 | −45.5 | 77.2 | 7.4 | 69.24 | 0.047 | 95.7 | 0.81 | 2.1 | 46.1 | −2.3
CO[C@@H]1[C@H](OP(=O)(O)OC[C@H]2O[C@@H](n3cnc4c(=O)[nH]c(N)nc43)[C@H](O)[C@@H]2O)[C@@H](COP(=O)(O)OP(=O)(O)OP(=O)(O)OC[C@H]2OC([n+]3cn(C)c4c(=O)[nH]c(N)nc43)[C@H](NC(C)=O)[C@@H](O)[C@@H]2O)O[C@H]1n1cnc2c(N)ncnc21 (stereo partly drawn) [YK-CAP-102] | 44.1 | −67.1 | 30.2 | −58.0 | 73.22 | 0.055 | 95.3 | 0.34 | 0.9 | 41.2 | 2.6
COC1[C@H](n2cnc3c(N)ncnc32)O[C@H](COP(=O)(O)OP(=O)(O)OP(=O)(O)OC[C@@]23COC([C@H]([n+]4cn(C)c5c(=O)[nH]c(N)nc54)O2)[C@H]3O)[C@H]1OP(=O)(O)OCC1OC(n2cnc3c(=O)[nH]c(N)nc32)C(O)C1O (stereo partly drawn) [Compound 14, reference compound] | 123.2 | −8.2 | 78.3 | 8.9 | 79.35 | 0.073 | 94.2 | – | 2.9 | 26.8 | 17.0
CO[C@@H]1[C@H](OP(=O)(O)OC[C@H]2O[C@@H](n3cnc4c(=O)[nH]c(N)nc43)[C@H](O)[C@@H]2O)[C@@H](COP(=O)(O)OP(=O)(O)OP(=O)(O)OC[C@H]2O[C@@H]([n+]3cn(C)c4c(=O)[nH]c(N)nc43)[C@H](O)[C@]2(C)C#N)O[C@H]1n1cnc2c(N)ncnc21 [YK-CAP-105] | 82.3 | −38.7 | 69.3 | −3.6 | 77.22 | 0.063 | 95.7 | 0.72 | 1.9 | 33.9 | 9.9
